Data from the METLIN SMRT retention time set (Domingo-Almenara et al. 2019).

Assay: gradient 5% acetonitrile 3 min, to 50% in 2 min, to 85% in 15 min, held 3 min, 100 µL/min
Details: column: Zorbax Extend-C18 2.1 x 50 mm; eluents: water / acetonitrile, 0.1% formic acid
Summary of the method: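 In both positive and negative ionization mode, a quadrupole time-of-flight mass spectrometer coupled to HPLC analyzed pure standards run in mixtures of ~100 molecules. The Zorbax Extend-C18 column (2.1 × 50 mm, 1.8 μm) was operated at 100 μL/min with water and acetonitrile, each containing 0.1% formic acid. The dead volume was 40 μL and the dwell volume 900 μL. Retention time came from adduct peaks that were computationally picked and individually inspected by hand.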

SMILES | RP-LC retention time [s]
CCOc1ccccc1NC(=O)C1CCN(C(=O)C2Sc3ccccc3NC2=O)CC1 (stereo not given) | 814
CCCCNC(=O)c1ccc2c(c1)NC(=O)C(C(C)C)N2 (stereo not given) | 684
O=C(NC1CCCCC1)N1CCc2nc(-c3ccc(F)cc3)ncc2C1 | 882
Cc1ccc2nc(C)cc(C(=O)NCC(C)C)c2c1 | 631
CCCN1C(=O)COc2ccc(-c3csc(NC(=O)c4ccc(OC)cc4)n3)cc21 | 1040
O=C(CN1C(=O)CCCc2cc(S(=O)(=O)N3CCCC3)ccc21)Nc1ccc(Cl)cc1 | 892
COCC1(O)CCOC2(CCN(Cc3ccc(C)cn3)CC2)C1 (stereo not given) | 568
CC1=C(C(=O)N(CC(=O)NC2CCC(C)CC2)c2ccc(Cl)cc2)SCCO1 (stereo not given) | 1040
Cc1cc(Cl)ccc1NC(=O)C1CCCN(c2nnc(C)c3c(C)n(-c4ccccc4)nc23)C1 (stereo not given) | 803
CCCn1nc(CNC(=O)Cc2ccsc2)c2ccccc21 | 847
O=C(NC1CCN(c2cc(-c3cccs3)[nH]n2)C1)c1ccc2[nH]ccc2c1 (stereo not given) | 672
COc1ccc2nccc(/C=C/c3ccnc4ccc(OC)cc34)c2c1 | 671
CCOc1ccc(-c2csc(Cc3nc(-c4ccc(F)cc4)no3)n2)cc1 | 1250
O=C(NCc1nc(-c2ccc(NS(=O)(=O)c3ccc(F)cc3)cc2)no1)c1cccs1 | 867
CCOC(=O)C1=C(CN(C)Cc2ccccc2)NC(=O)NC1c1ccccc1 (stereo not given) | 652
O=C(NCCN1CCOCC1)c1c2c(nc3ccccc13)C(=O)N(C1CCCCC1)C2 | 599
O=C1COc2ccc(S(=O)(=O)N3CCC(C(=O)NCc4ccc(Cl)cc4)CC3)cc2N1 | 832
Cc1noc([C@@H]2CC(F)(F)CN2C(=O)c2ocnc2C)n1 | 685
CCc1nc(-c2csc(S(=O)(=O)N3CCCC(C(=O)Nc4ccc(F)c(F)c4)C3)c2)no1 (stereo not given) | 1090
Cc1c(Cl)cccc1S(=O)(=O)Nc1ccccc1N1CCNC(=O)C1 | 738
CCOC(=O)c1cnc2c(-c3ccccc3OC)c(C)nn2c1N | 879
Cn1cc(-c2nc(C(=O)NCc3ccccc3F)cs2)c2cccnc21 | 908

SMILES | RP-LC retention time [s]
O=C(Nc1ccccc1)N1CCN(c2nc3ccccc3nc2C(F)(F)F)CC1 | 1070
Cn1nc(C(=O)N2CCC3(CC2)N=C(c2ccccc2)NO3)c2ccccc21 | 809
COc1ccc(NC(=O)Cc2csc(NC(=O)c3ccc(=O)[nH]c3)n2)cc1Cl | 637
CC(C)(C)c1csc(-c2csc(S(=O)(=O)NC3CCCCC3)c2)n1 | 1320
C=CC1=C(C(=O)O)N2C(=O)[C@@H](NC(=O)/C(=N/OCC(=O)O)c3csc(N)n3)[C@H]2SC1 | 644
CC(C)OCCCNC(=O)CN1C(=O)CCn2nc(-c3cn(C)c4ccccc34)cc21 | 738
COc1ccc(-c2ncccc2CNS(=O)(=O)c2ccc(C)cc2C)cc1 | 715
COc1cccc(CNC(=O)Nc2c(-c3ccc(C)cc3)nc3ccccn23)c1 | 658
Cc1ccc2c(c1)N(Cc1nc(-c3ccccc3Cl)no1)C(=O)CO2 | 1040
Cc1ccnc(NS(=O)(=O)c2ccc(NC(=O)CN3C(=O)CCC3=O)cc2)n1 | 546
CCc1ccc(S(=O)(=O)N2CCCC(Cn3c(C)nc4cccnc43)C2)cc1 (stereo not given) | 769
Cc1ccc(CNC(=O)N2CCc3c(c(-c4nc(C)no4)nn3C)C2)cc1 | 738
O=C1NCCCn2cc(S(=O)(=O)Nc3ccc(N4CCOCC4)cc3)cc21 | 596
Cc1nnc(C2CCCCCN2C(=O)Cc2c(C)noc2C)o1 (stereo not given) | 658
CC(=O)N1CCc2cc(N3CC(C(=O)Nc4ccccc4Cl)CC3=O)ccc21 (stereo not given) | 701
Cc1c(Cl)cccc1S(=O)(=O)N1CCC(CN2CCCCCC2)CC1 | 733
CCCC(=O)Nc1ccc2c(c1)CN(C(=O)Cc1cccs1)C(C(=O)N(C)C)C2 (stereo not given) | 690
Cn1c(=O)n(C)c2cc(S(=O)(=O)c3ccc(F)cc3)c(NC(=O)c3cccc(F)c3)cc21 | 896
CCn1ccc2sc(C)c(C(=O)NCc3ccc(OC)c(OC)c3)c2c1=O | 716
CCCN(C(=O)C1CCCN(c2ncnc3c2nc2n3CCCCC2)C1)c1ccccc1C (stereo not given) | 1000
Cc1nn(-c2ccccc2)c(C)c1S(=O)(=O)N1CCC(C(=O)N2CCCC2)CC1 | 786
CN1C(=O)C2CCCCN2c2ccc(C(=O)N3CCN(C(=O)c4ccco4)CC3)cc21 (stereo not given) | 701

SMILES | RP-LC retention time [s]
NC(=O)c1ccc(-c2nc(-c3ccc4c(c3)OCO4)c(-c3ccccn3)[nH]2)cc1 | 647
COc1ccc(Cl)cc1NC(=O)c1c(O)c2cccc3c2n(c1=O)CC3 | 1330
COc1ccc(-c2ncc3c(n2)CCN(S(=O)(=O)c2ccccc2Cl)C3)cc1 | 1070
O=C(c1ccccc1-c1ocnc1C(=O)N1CCOCC1)N1CCCCC1 | 652
CC1Sc2ccc(S(=O)(=O)N3CCC(C(=O)N4CCc5ccccc5C4)CC3)cc2NC1=O (stereo not given) | 882
CCS(=O)(=O)N1CCN(C(=O)c2cc(-c3ccc(OC)cc3)n[nH]2)CC1 | 654
CCNC(=O)C1CCCN(S(=O)(=O)c2c[nH]c(C(=O)N3CCCCCC3)c2)C1 (stereo not given) | 699
CN(C)CCCNC(=O)c1ccc2c(c1)nc1n2CCN(C2CCCCC2)C1=O | 605
CCCn1cc(-c2nc(-c3cc(OC)c(OC)c(OC)c3)no2)c(=O)c2ccccc21 | 798
CCOC(=O)c1c(C)[nH]c(C(=O)N2CCCC(C(=O)NCc3cccc(F)c3)C2)c1C (stereo not given) | 808
COc1cc(=O)n(-c2ccccc2C)nc1C(=O)Nc1nc2ccc(C)cc2s1 | 861
Cc1cc(C)cc(NC2C=CS(=O)(=O)C2)c1 (stereo not given) | 760
Cc1nc(CNC(=O)[C@H]2CCCN2S(=O)(=O)c2ccc3c(c2)oc(=O)n3C)cs1 | 655
O=C1[C@H]2CN(Cc3ccc(Cl)c(F)c3)C[C@H]2C(=O)N1CCc1ccccc1 | 901
Fc1ccccc1-c1noc(N2CCN(c3ccccn3)CC2)n1 | 649
Cn1c(=O)c2cc(C(=O)Nc3ccc(F)cc3Cl)sc2n(C)c1=O | 797
COc1cccc(S(=O)(=O)N2CCC(CN3CCCC(C)C3)CC2)c1 (stereo not given) | 662
O=C(NCCc1ccccn1)c1sc2ncccc2c1-n1cccc1 | 610
COc1ccccc1-c1nnc(-c2ccc(Cl)c(S(=O)(=O)N3CCOCC3)c2)o1 | 897
Cc1ccc(-c2ncc3c(=O)n(CC(=O)NC4CCCCCC4)c(=O)n(C)c3n2)cc1 | 1080
Cc1cc(N2CCN(C(=O)Nc3cccc(C(F)(F)F)c3)CC2)nc(N2CCCC2)n1 | 760
